This assay has as its system L1210 leukemia ip in BDF1 mice, survival T/C. The assay is described as follows: NCI In Vivo Anticancer Drug Screen. Data for tumor model L1210 Leukemia (intraperitoneal) in B6D2F1 (BDF1) mice. To be noted: endpoint: mean survival time, higher = longer survival. In a few lines:
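Read-out is survival time, reported as the treated-group measurement over the vehicle-control measurement.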

The mark [1] stands for this setting: dose: 100.0 mg/kg/injection, schedule: Q01DX001 (ip), vehicle: carboxymethylcellulose (CMC).
Setting [2] is: dose: 100.0 mg/kg/injection, schedule: Q04DX003 (ip), vehicle: Klucel (hydroxypropylcellulose) (HPC).
Setting [3] is: dose: 200.0 mg/kg/injection, schedule: Q01DX001 (ip), vehicle: carboxymethylcellulose (CMC).
[4] abbreviates: dose: 200.0 mg/kg/injection, schedule: Q04DX003 (ip), vehicle: Klucel (hydroxypropylcellulose) (HPC).
The mark [5] stands for this setting: dose: 400.0 mg/kg/injection, schedule: Q01DX001 (ip), vehicle: carboxymethylcellulose (CMC).
Setting [6] is: dose: 400.0 mg/kg/injection, schedule: Q04DX003 (ip), vehicle: Klucel (hydroxypropylcellulose) (HPC).
[7] abbreviates: dose: 50.0 mg/kg/injection, schedule: Q01DX009 (ip), vehicle: saline.
Setting [8] is: dose: 100.0 mg/kg/injection, schedule: Q01DX009 (ip), vehicle: saline.
Setting [9] is: dose: 200.0 mg/kg/injection, schedule: Q01DX009 (ip), vehicle: saline.
Where [10] appears, read: dose: 100.0 mg/kg/injection, schedule: Q01DX009 (ip), vehicle: saline with Tween-80.
Where [11] appears, read: dose: 100.0 mg/kg/injection, schedule: Q04DX003 (ip), vehicle: saline with Tween-80.
The mark [12] stands for this setting: dose: 200.0 mg/kg/injection, schedule: Q04DX003 (ip), vehicle: saline with Tween-80.
The mark [13] stands for this setting: dose: 400.0 mg/kg/injection, schedule: Q04DX003 (ip), vehicle: saline with Tween-80.

Structures are written as SMILES. Values joined by “and” are separate entries in the source; they are usually repeats but may differ in a detail not shown here. Equal values may be shown once. Toxic doses and inconclusive results are not listed.

With `O=C(O)c1cccc([N+](=O)[O-])c1O`, the T/C by setting is: (dose: 12.5 mg/kg/injection, schedule: Q04DX002 (ip), vehicle: saline with Tween-80) 95 % of control; (dose: 25.0 mg/kg/injection, schedule: Q04DX002 (ip), vehicle: saline with Tween-80) 95 % of control; (dose: 50.0 mg/kg/injection, schedule: Q01DX001 (ip), vehicle: carboxymethylcellulose (CMC)) 97 % of control; (dose: 50.0 mg/kg/injection, schedule: Q04DX002 (ip), vehicle: saline with Tween-80) 100 % of control; under setting [1], 87 % of control; (dose: 100.0 mg/kg/injection, schedule: Q01DX009 (ip), vehicle: Klucel (hydroxypropylcellulose) (HPC)) 103 % of control. Also, the T/C under setting [2] was 93 % of control; the T/C under setting [3] is 87 % of control; the T/C (dose: 200.0 mg/kg/injection, schedule: Q01DX009 (ip), vehicle: Klucel (hydroxypropylcellulose) (HPC)) was 95 % of control; the T/C under setting [4] is 90 % of control; the T/C under setting [5] was 92 % of control; the T/C (dose: 400.0 mg/kg/injection, schedule: Q01DX009 (ip), vehicle: Klucel (hydroxypropylcellulose) (HPC)) is 93 % of control. Further, the T/C under setting [6] was 96 % of control.
As to `O=C(NO)C(=O)NO`, the T/C under setting [7] is 98 % of control; the T/C under setting [8] was 113 % of control; the T/C (dose: 100.0 mg/kg/injection, schedule: Q04DX002 (ip), vehicle: saline with Tween-80) is 90 % of control; the T/C under setting [9] is 117 % of control; the T/C (dose: 200.0 mg/kg/injection, schedule: Q04DX002 (ip), vehicle: saline with Tween-80) is 107 % of control; the T/C (dose: 400.0 mg/kg/injection, schedule: Q04DX002 (ip), vehicle: saline with Tween-80) is 110 % of control.
For `O=[N+]([O-])c1cccc(SNc2cccc(Cl)c2)c1`, the T/C is, setting by setting: under setting [10], 98 % of control; under setting [11], 93 % of control; under setting [12], 95 % of control; under setting [13], 90 % of control.
For `C[CH2][Ge]([Cl])([CH2]C)[CH2]C`, the T/C (dose: 50.0 mg/kg/injection, schedule: Q04DX003 (ip), vehicle: saline with Tween-80) is 99 % of control.
For `CCOC(=O)N/N=C/c1ccccc1`, the T/C by setting is: (dose: 200.0 mg/kg/injection, schedule: Q01DX001 (ip), vehicle: Klucel (hydroxypropylcellulose) (HPC)) 108 % of control; (dose: 400.0 mg/kg/injection, schedule: Q01DX001 (ip), vehicle: Klucel (hydroxypropylcellulose) (HPC)) 118 % of control.
Regarding `COc1cc2ccc3c4cc5c(cc4cnc3c2cc1OC)OCO5`, the T/C runs as follows: under setting [10], 102 % of control; under setting [11], 89 % of control; (dose: 200.0 mg/kg/injection, schedule: Q01DX009 (ip), vehicle: saline with Tween-80) 98 % of control; under setting [12], 87 % of control; (dose: 400.0 mg/kg/injection, schedule: Q01DX009 (ip), vehicle: saline with Tween-80) 106 % of control; under setting [13], 89 % of control.
Regarding `CS(=O)(=O)OCCN(CCOS(C)(=O)=O)c1ccc(N=O)cc1`, the T/C was 115 % of control (dose: 0.08 mg/kg/injection, schedule: Q01DX Z (ip), vehicle: carboxymethylcellulose (CMC)); 117 % of control (dose: 0.08 mg/kg/injection, schedule: Q01DX Z (ip), vehicle: saline); 123 % of control (dose: 0.16 mg/kg/injection, schedule: Q01DX Z (ip), vehicle: carboxymethylcellulose (CMC)); 122 % of control (dose: 0.16 mg/kg/injection, schedule: Q01DX Z (ip), vehicle: saline); 120 % of control (dose: 0.63 mg/kg/injection, schedule: Q01DX Z (ip), vehicle: saline); 110 % of control (dose: 1.25 mg/kg/injection, schedule: Q01DX Z (ip), vehicle: saline). The T/C was 103 % of control (dose: 1.28 mg/kg/injection, schedule: Q01DX Z (ip), vehicle: carboxymethylcellulose (CMC)); 120 % of control (dose: 2.0 mg/kg/injection, schedule: Q01DX001 (ip), vehicle: saline); 121 % of control (dose: 4.0 mg/kg/injection, schedule: Q01DX001 (ip), vehicle: saline).
`NC(Cc1c[nH]c2cc(N(CCCl)CCCl)ccc12)C(=O)O` (stereo unspecified): the T/C was 171 % of control (dose: 0.25 mg/kg/injection, schedule: Q01DX Z (ip), vehicle: other); 188 % of control (dose: 0.5 mg/kg/injection, schedule: Q01DX Z (ip), vehicle: other); 118 % of control (dose: 125.0 micrograms/kg/injection, schedule: Q01DX009 (ip), vehicle: carboxymethylcellulose (CMC)); 167 % of control (dose: 500.0 micrograms/kg/injection, schedule: Q01DX009 (ip), vehicle: carboxymethylcellulose (CMC)); 229 % of control (dose: 1000.0 micrograms/kg/injection, schedule: Q01DX009 (ip), vehicle: carboxymethylcellulose (CMC)).
Turning to `CC(=O)C(C#N)c1ccccc1` (stereo unspecified), the T/C is 98 % of control (dose: 25.0 mg/kg/injection, schedule: Q01DX009 (ip), vehicle: Klucel (hydroxypropylcellulose) (HPC)); 100 % of control (dose: 25.0 mg/kg/injection, schedule: Q04DX003 (ip), vehicle: Klucel (hydroxypropylcellulose) (HPC)); 96 % of control (dose: 50.0 mg/kg/injection, schedule: Q01DX009 (ip), vehicle: Klucel (hydroxypropylcellulose) (HPC)); 100 % of control (dose: 50.0 mg/kg/injection, schedule: Q04DX003 (ip), vehicle: Klucel (hydroxypropylcellulose) (HPC)); 97 % of control under setting [2].
As for `O=C(Nc1ccc(S(=O)(=O)Nc2ccc(N=Nc3ccc(S(=O)(=O)Nc4nccs4)cc3)cc2)cc1)C(SC1=NC=NC2=NC=NC21)SC1=NC=NC2=NC=NC21` (stereo unspecified), the T/C (dose: 75.0 mg/kg/injection, schedule: Q04DX003 (ip), vehicle: saline) was 100 % of control; the T/C (dose: 150.0 mg/kg/injection, schedule: Q04DX003 (ip), vehicle: saline) was 96 % of control; the T/C (dose: 300.0 mg/kg/injection, schedule: Q04DX003 (ip), vehicle: saline) is 98 % of control.
Turning to `Cc1csc2c1c(N)nc(=O)n2C1OC(CO)C(O)C1O` (stereo unspecified), the T/C is, setting by setting: (dose: 100.0 mg/kg/injection, schedule: Q01DX005 (ip), vehicle: saline) 112 % of control; (dose: 200.0 mg/kg/injection, schedule: Q01DX005 (ip), vehicle: saline) 102 % of control.
Turning to `CNC(=O)C1OC(n2cnc3c(N)ncnc32)C(O)C1O` (stereo unspecified), the T/C runs as follows: (dose: 0.19 mg/kg/injection, schedule: Q01DX005 (ip), vehicle: saline) 110 % of control; (dose: 0.19 mg/kg/injection, schedule: Q01DX009 (ip), vehicle: saline) 114 % of control; (dose: 0.39 mg/kg/injection, schedule: Q01DX005 (ip), vehicle: saline) 105 % of control; (dose: 0.39 mg/kg/injection, schedule: Q01DX009 (ip), vehicle: saline) 93 % of control; (dose: 0.78 mg/kg/injection, schedule: Q01DX005 (ip), vehicle: saline) 116 % of control; (dose: 0.78 mg/kg/injection, schedule: Q01DX009 (ip), vehicle: saline) 103 % of control.
As for `O=C1C=CC(=O)c2c(O)c(CBr)c(CBr)c(O)c21`, the T/C is 101 % of control (dose: 6.25 mg/kg/injection, schedule: Q01DX009 (ip), vehicle: water); 92 % of control (dose: 12.5 mg/kg/injection, schedule: Q01DX009 (ip), vehicle: water); 93 % of control and 94 % of control (dose: 25.0 mg/kg/injection, schedule: Q01DX009 (ip), vehicle: water); 89 % of control (dose: 50.0 mg/kg/injection, schedule: Q01DX009 (ip), vehicle: water).
Turning to `Brc1ccc2[nH]cc(/C=N/Nc3nnc(N/N=C/c4c[nH]c5ccc(Br)cc45)c4ccccc34)c2c1`, the T/C (dose: 50.0 mg/kg/injection, schedule: Q01DX001 (ip), vehicle: saline) is 101 % of control.
Regarding `O=c1c(-c2ccccc2)c(-c2ccccc2)n2n1C1C=CC2C1` (stereo unspecified), the T/C is 96 % of control under setting [1], 96 % of control under setting [3] and 96 % of control under setting [5].
As for `CCCCCCCCCCCCC(CC(=O)O)C(=O)N(C)CC(O)C(O)C(O)C(O)CO` (stereo unspecified), the T/C by setting is: under setting [7], 106 % of control; under setting [8], 100 % of control; under setting [9], 110 % of control.
Turning to `CS(=O)(=O)NCCOc1ccc(C(=O)O)cc1`, the T/C under setting [2] is 96 % of control, the T/C under setting [4] was 101 % of control and the T/C under setting [6] is 95 % of control.

The record behind these values is PubChem BioAssay AID248 (DTP/NCI, 2004).
